Test results reported in PubChem BioAssay AID1159559 (GlaxoSmithKline (GSK), 2015).
pIC50: −log10 of the molar value. Activity calls are given as the source filed them.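 The calls were made as follows: active = compounds whose IC50 against parasite growth in infected mouse cells is below 50000 nM; inactive = the rest.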

System: T. cruzi Tulahuen in NIH-3T3, beta-gal fluorescence, 4 d
Assay: T. cruzi intracellular growth inhibition, cell-based (AID 1159559)

First: CN(Cc1ccc(F)cc1)c1ccc(OCC(=O)N2CCCCC2c2cccnc2)nn1 (stereo not given)
Second: CN(Cc1ccc(C(N)=O)cc1)C(c1ccc(F)cc1)c1cccnc1 (stereo not given)
The pIC50 of the first is 0.31 log units lower: 6.49 for the first, 6.80 for the second. The second is the more potent here.

Going from CCC(CC)C(=O)Nc1ccc(-c2nnc(-c3ccc(OC)cc3)o2)cc1 to CCOc1ccc(NC(=O)C=Cc2ccc(CC)o2)cc1, the pIC50 rises from 5.30 to 5.70 (0.40 log units). The second is the more potent here.

Compared with COc1ccc(Nc2nc(-c3ccccn3)cc(N3CCCC(O)C3)n2)cc1 (stereo not given), COc1ccc(Nc2nc(-c3ccccn3)cs2)c(OC)c1 is 0.80 log units lower in pIC50: 6.20 for the first, 5.40 for the second. The first is the more potent here.

First: CC(C)(C)C(O)(CCc1ccc(Cl)cc1)Cn1cncn1 (stereo not given)
Second: Cc1nc(C(=O)Nc2ccc3c(c2)OCO3)nn1-c1ccc(Cl)cc1
The pIC50 of the first is 1.69 log units higher: 6.89 for the first, 5.20 for the second.

Compared with COc1ccc2ncc(Cl)c(CCN3CC[C@H](NCc4cc5c(cn4)OCS5)[C@@H](O)C3)c2n1, COc1ccc(C(=O)N2CCC(Nc3cccnc3)C2)c(OC)n1 (stereo not given) is 0.40 log units lower in pIC50: 6.89 for the first, 6.49 for the second.

CN(C)Cc1ccc(-c2ccc(S(=O)(=O)NCC3CCCO3)c(F)c2)cc1 (stereo not given) and CC(=O)Nc1ccc(-c2noc(CC3CCCN(Cc4cccc(F)c4C)C3)n2)cc1 (stereo not given) are within 0.2 log units of each other in pIC50: 5.89 for the first, 6.00 for the second.

Going from Oc1c(-c2n[nH]c(CCc3ccccc3)n2)ncc2cccnc12 to Cc1nc2c(-c3ncn[nH]3)cc(NC(=O)Cc3ccccc3)cn2c1C, the pIC50 falls from 6.70 to 6.00 (0.70 log units). The first is the more potent here.

Compared with COc1ccc(C2CC(c3ccc(NS(C)(=O)=O)cc3)=NN2C(=O)c2cccs2)cc1OC (stereo not given), O=C(Nc1ccc(-c2nc3ccccc3c(=O)[nH]2)cc1)c1cccs1 is 0.89 log units higher in pIC50: 4.60 for the first, 5.49 for the second. The second is the more potent here.

Compared with O=C(NCC1CCCCC1)c1cnns1, O=C(Nc1cccc(Cl)c1)N1CCCCC1c1cccnc1 (stereo not given) is 1.20 log units higher in pIC50: 5.60 for the first, 6.80 for the second. The second is the more potent here.

Compared with CC(C)(C)c1cc(NC2CC2)nc(-c2ccccn2)n1, Cn1ccnc1-c1nc(NCc2ccccc2Cl)cc(C2CC2)n1 is 0.31 log units higher in pIC50: 5.89 for the first, 6.20 for the second.

CCOc1ccccc1C(=O)Nc1nnc(-c2ccc3c(c2)OCO3)s1 and CN(C)S(=O)(=O)c1cccc(CSc2nnc(-c3ccc4c(c3)OCO4)o2)c1 are within 0.2 log units of each other in pIC50: 6.20 for the first, 6.30 for the second.

Compared with CCN(CC)S(=O)(=O)c1ccc(C(=O)Nc2cc(C)nn2-c2nc(C)c(C)c(=O)[nH]2)cc1, Cc1cccc(NS(=O)(=O)c2cnc3sc(C)cn3c2=O)c1 is 0.31 log units lower in pIC50: 6.20 for the first, 5.89 for the second.

First: O=C1CCCCCC1(Cc1cnc[nH]1)c1ccc(Cl)cc1Cl (stereo not given)
Second: O=C(CN1CCN(c2ccccn2)CC1)Nc1cc(S(=O)(=O)N2CCCCCC2)ccc1Cl
The pIC50 of the first is 1.60 log units higher: 6.60 for the first, 5.00 for the second. The first is the more potent here.

COc1ccc(CN2C(=O)C(O)(CC(=O)c3ccncc3)c3cc(Br)ccc32)cc1OC (stereo not given) and CCCN(Cc1ccc(OC)c(OC)c1)Cc1cc(=O)c2c(C)cc(C)cc2[nH]1 are within 0.2 log units of each other in pIC50: 5.60 for the first, 5.70 for the second.

CN(Cc1cccnc1)Cc1ccc(N2CCN(C(=O)C3(c4ccc(Cl)cc4)CC3)CC2)nc1 and Cc1ccccc1OCC(=O)N1CCCN(c2cccnn2)CC1 are within 0.2 log units of each other in pIC50: 6.30 for the first, 6.49 for the second.

Going from O=C(Nc1ccc(S(=O)(=O)N2CCCC2)cc1)c1ccc([N+](=O)[O-])s1 to CCOc1ccc2nc(NC(=O)c3ccc([N+](=O)[O-])s3)sc2c1, the pIC50 falls from 6.70 to 5.80 (0.90 log units).

First: CN1C(=O)c2ccccc2Sc2ccc(NC(=O)NCc3ccco3)cc21
Second: O=C(NCCCn1cnc2ccccc21)c1ccc(NC(=O)c2ccco2)cc1
The pIC50 of the first is 0.40 log units lower: 5.00 for the first, 5.40 for the second.

First: Cc1ccc2c(c1)-c1onc(C(=O)N3CCCCC3c3cccnc3)c1CO2 (stereo not given)
Second: O=C1c2cnc(N3CCCC3)nc2CN1c1ccc2c(c1)OCO2
The pIC50 of the first is 1.40 log units higher: 7.00 for the first, 5.60 for the second.

Going from Cc1nc(-c2ccncc2)ncc1C(C)NC(=O)c1ccc(Cl)s1 (stereo not given) to O=C(NC1C(=O)N(c2ccccc2)C1c1cccnc1)c1ccc(Cl)s1 (stereo not given), the pIC50 rises from 4.60 to 7.49 (2.89 log units). The second is the more potent here.

First: O=C(c1ccccc1)N1CCC(C(=O)N2CCC(Oc3ccccc3Cl)CC2)CC1
Second: O=C(Nc1ccccc1)Nc1nc(-c2ccccn2)cs1
The pIC50 of the first is 0.50 log units lower: 5.70 for the first, 6.20 for the second.

Compared with Cc1cc(Br)cc(C(=O)c2c(C(C)C)c(=O)[nH]c(=O)n2Cc2ccnc(N)c2)c1, CNc1cc(Cn2c(C(=O)c3cc(C)cc(Cl)c3)c(C(C)C)c(=O)[nH]c2=O)ccn1 is 1.00 log units higher in pIC50: 6.40 for the first, 7.40 for the second. The second is the more potent here.

Compared with Cc1ccc(-c2csc(NC(=O)C=Cc3ccc(S(=O)(=O)N4CCOCC4)cc3)n2)o1, COc1ccc(-c2cc(C)no2)cc1S(=O)(=O)Nc1ccc(F)c(Cl)c1 is 0.70 log units higher in pIC50: 5.10 for the first, 5.80 for the second.

First: Nc1ncnc2c1ncn2[C@@H]1O[C@H](CO)C[C@H]1O
Second: O=c1[nH]cnc2c([C@@H]3O[C@H](CO)[C@@H](O)[C@H]3O)[nH]nc12
The pIC50 of the first is 0.89 log units lower: 6.00 for the first, 6.89 for the second.

Going from COc1ccc(S(=O)(=O)NC(C)C)cc1Nc1ncc(-c2cccc(F)c2)cn1 to CS(=O)(=O)c1ccc(Nc2nccc(Nc3n[nH]c4ccc(F)cc34)n2)c(F)c1, the pIC50 falls from 6.20 to 5.10 (1.10 log units). The first is the more potent here.

CCCc1cc(N)nc(-c2cc(CCC)cc(N)n2)c1 and COc1cccc(-c2c(C)nn(-c3nc(N)nc(-c4ccccn4)n3)c2N)c1 are within 0.2 log units of each other in pIC50: 5.70 for the first, 5.60 for the second.

Compared with Cn1nccc1-c1cc(OC(CN)c2ccccc2)cnc1-c1ccco1 (stereo not given), Cn1nc(-c2ccc(NC(=O)Cc3ccccc3Cl)cc2)c2c(N)ncnc21 is 0.70 log units lower in pIC50: 6.40 for the first, 5.70 for the second.

COc1ccc([N+](=O)[O-])cc1NC(=O)Nc1cccc(Cl)c1 and O=C(Cn1cnc2cc([N+](=O)[O-])ccc2c1=O)NCCc1ccc(Cl)cc1Cl are within 0.2 log units of each other in pIC50: 6.10 for the first, 6.20 for the second.

Cc1[nH]nc(Nc2ccnc3[nH]ccc23)c1C and CC(C)Nc1nc(Cl)nc2ccccc12 are the same in pIC50: 5.40 for the first, 5.40 for the second.

First: C[C@@H](Oc1cc(-n2cnc3ccc(C(O)CO)cc32)sc1C(N)=O)c1ccccc1C(F)(F)F (stereo not given in full)
Second: COc1cccc2sc(CN(C)C(=O)C3CNCCN3c3ccc(F)cc3)c(C)c12 (stereo not given)
The pIC50 of the first is 1.10 log units lower: 5.30 for the first, 6.40 for the second. The second is the more potent here.

Going from CC(Cn1ccnc1)NC(=O)COc1ccc(Cl)c(Cl)c1 (stereo not given) to Cc1ccc(NC(=O)C(C)n2nc([N+](=O)[O-])c(Br)c2C)cc1Cl (stereo not given), the pIC50 falls from 6.70 to 5.60 (1.10 log units). The first is the more potent here.

Compared with N#Cc1ccc(Br)cc1[N+](=O)[O-], COc1ccc(OC)c(S(=O)(=O)N(Cc2c(F)cccc2F)[C@@H]2CCN(C#N)C2)c1 is 1.40 log units lower in pIC50: 6.60 for the first, 5.20 for the second.

Cc1cc(Nc2cc(C3CC3)[nH]n2)nc(N2CCCC2)n1 gave a pIC50 of 7.10.

In the case of Cc1cc(N2CCc3ccccc3C2)nc(Nc2ccc(S(=O)(=O)N3CCOCC3)cc2)n1, the IC50 was > 50000 nM (inactive).
In the case of CNC(=O)C1Cc2ccccc2N1C(=O)Cc1ccc(F)cc1 (stereo not given), the IC50 was > 50000 nM (inactive).
